Among the test systems are SF-268 CNS; CCRF-CEM leukemia; OVCAR-3 ovarian; NCI-H23 lung; RPMI-8226 leukemia; NCI-H522 lung; UO-31 renal; HOP-92 NSCLC; OVCAR-8 ovarian; NCI/ADR-RES ovarian.
Common to all, as to assay: NCI tumour cell line growth inhibition, 48 h

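Cells were grown in 96-well plates and exposed to each compound for 48 hours at five concentrations; endpoints were interpolated linearly between bracketing concentrations, or set to the highest concentration if not reached. Here, GI50 denotes the concentration required for 50% inhibition of growth. TGI denotes the concentration required for complete inhibition of growth.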

`COC(=O)/C(=N\NC(=O)C[N+](C)(C)C)C(C(=O)OC)C(=O)C(=O)Nc1ccccc1C(N)=O` (stereo unspecified): the TGI in the assay on SF-268 CNS, in the assay on CCRF-CEM leukemia, in the assay on OVCAR-3 ovarian, with NCI-H23 lung, in the assay with RPMI-8226 leukemia and with NCI-H522 lung was above 100 µM each time. The TGI in the assay with UO-31 renal is above 100 µM.
With `O=c1[nH]nc2ccccc2c1Cc1ccccc1`, the TGI in the assay with SF-268 CNS, in the assay with HOP-92 NSCLC, in the assay on CCRF-CEM leukemia, in the assay on OVCAR-3 ovarian, in the assay on NCI-H23 lung and with RPMI-8226 leukemia was above 100 µM in each case. Further, the TGI in the assay with OVCAR-8 ovarian and with UO-31 renal was above 100 µM in each case.
With `O=C(NC(=O)c1cn(CCN(CCO)C(=O)NCCCCCCNC(=O)N(CCO)CCn2cc(C(=O)NC(=O)OCc3ccccc3)c(=O)[nH]c2=O)c(=O)[nH]c1=O)OCc1ccccc1`, the TGI with HOP-92 NSCLC, in the assay with CCRF-CEM leukemia, with OVCAR-3 ovarian, in the assay with NCI-H23 lung, with RPMI-8226 leukemia and in the assay on OVCAR-8 ovarian was above 100 µM throughout. This compound also showed a TGI in the assay with UO-31 renal above 100 µM.
Consider `Clc1ccc(N=Nc2nc3ccccc3nc2N=Nc2ccc(Cl)cc2Cl)c(Cl)c1`, for which the TGI in the assay on SF-268 CNS, in the assay with HOP-92 NSCLC, with OVCAR-3 ovarian, in the assay with NCI-H23 lung, in the assay on RPMI-8226 leukemia and in the assay with OVCAR-8 ovarian was above 100 µM in each case. Further, the TGI in the assay on NCI-H522 lung and in the assay on UO-31 renal was above 100 µM in each case.
With `CCN(CC)CCOc1ccc(CCc2cc(OC)c(OC)c(OC)c2)cc1`, the TGI was above 100 µM in the assay with SF-268 CNS; 82.6 µM in the assay with HOP-92 NSCLC; above 100 µM with CCRF-CEM leukemia; above 100 µM in the assay on OVCAR-3 ovarian; 51.5 µM in the assay on RPMI-8226 leukemia; above 100 µM with OVCAR-8 ovarian. Moreover, the TGI in the assay with NCI-H522 lung and with UO-31 renal was above 100 µM each time.
Regarding `Cc1ccc(SSc2ccc(C)cc2C(=O)O)c(C(=O)O)c1`, the TGI in the assay with SF-268 CNS, in the assay with HOP-92 NSCLC, in the assay with CCRF-CEM leukemia, in the assay on NCI-H23 lung, in the assay with OVCAR-8 ovarian and in the assay with NCI-H522 lung was above 100 µM throughout. In the assay on UO-31 renal, this compound returned a TGI above 100 µM.
As for `CC1OC(OC2C[C@](O)(C(=O)CF)Cc3c(O)c4c(c(O)c32)C(=O)c2ccccc2C4=O)CC(N)C1O` (stereo partly specified), the TGI in the assay with SF-268 CNS stood at 1.37 µM; in the assay on HOP-92 NSCLC it was 0.805 µM; in the assay on CCRF-CEM leukemia, 0.0133 µM; in the assay with OVCAR-3 ovarian, 1.49 µM; in the assay with NCI-H23 lung, 0.169 µM; in the assay with RPMI-8226 leukemia, 0.132 µM. The TGI with OVCAR-8 ovarian was 0.231 µM; with NCI-H522 lung it was 0.104 µM; in the assay on UO-31 renal it was 1.02 µM.
Consider `C=CCNC(=O)N(CCCC(NC(C)=O)C(=O)NCc1ccccc1)Cc1ccccc1` (stereo unspecified), for which the TGI in the assay with SF-268 CNS, with HOP-92 NSCLC, in the assay on CCRF-CEM leukemia, with OVCAR-3 ovarian, in the assay with NCI-H23 lung and with RPMI-8226 leukemia was above 100 µM throughout. Besides, the TGI with OVCAR-8 ovarian, in the assay with NCI-H522 lung and in the assay on UO-31 renal was above 100 µM each time.
For the compound `CCC1CN2C(=N1)c1ccccc1-c1cc(Cl)ccc12` (stereo unspecified), the GI50 in the assay on SF-268 CNS was 2.96 µM; in the assay with CCRF-CEM leukemia, 2.02 µM; in the assay with NCI/ADR-RES ovarian it was 3.7 µM; with OVCAR-3 ovarian, 3.48 µM; in the assay on NCI-H23 lung, 3.78 µM; with OVCAR-8 ovarian, 3.32 µM. For the same compound, the GI50 in the assay on NCI-H522 lung was 2.58 µM; in the assay with UO-31 renal it was 2.39 µM. The TGI with SF-268 CNS was found to be 11.6 µM; with CCRF-CEM leukemia, 4.79 µM; in the assay on NCI/ADR-RES ovarian it was 18.4 µM; in the assay on OVCAR-3 ovarian, 9.9 µM; in the assay with NCI-H23 lung, 15.2 µM; in the assay on OVCAR-8 ovarian, 18.4 µM. Also, the results for the TGI in the assay on NCI-H522 lung and in the assay on UO-31 renal were 8.19 µM and 15.1 µM, respectively.
With `Cc1oc2c(C)c3oc(=O)cc(C)c3cc2c1CN1C(=O)C2OCCOCCOCCOCCOCCO[C@H]2C1=O` (stereo partly specified), the TGI with SF-268 CNS, in the assay on HOP-92 NSCLC, with CCRF-CEM leukemia, in the assay on OVCAR-3 ovarian, in the assay on NCI-H23 lung and in the assay with RPMI-8226 leukemia was above 100 µM in each case. The TGI in the assay with OVCAR-8 ovarian, in the assay on NCI-H522 lung and in the assay on UO-31 renal was above 100 µM in each case.
In the case of `COc1ccc2c(c1)[n+]([O-])c(-c1ccc(OC)c(OC)c1)c(N)[n+]2[O-]`, the TGI is above 100 µM in the assay on SF-268 CNS; above 100 µM with CCRF-CEM leukemia; above 100 µM in the assay with OVCAR-3 ovarian; 57 µM in the assay with NCI-H23 lung; above 100 µM in the assay with RPMI-8226 leukemia; above 100 µM in the assay with OVCAR-8 ovarian. Besides, the TGI with NCI-H522 lung is 31.5 µM; in the assay on UO-31 renal, above 100 µM.
As to `COC1OC(CBr)C(OC(=O)c2ccccc2)C(O)C1Br` (stereo unspecified), the TGI with SF-268 CNS, in the assay with HOP-92 NSCLC, with CCRF-CEM leukemia, in the assay with OVCAR-3 ovarian, in the assay on NCI-H23 lung and with RPMI-8226 leukemia was above 100 µM in each case. The TGI in the assay with OVCAR-8 ovarian and with NCI-H522 lung was above 100 µM each time.
For the compound `O=C1NC2(CCCCCC2)C2CCCCCCC12O` (stereo unspecified), the TGI in the assay with SF-268 CNS, with HOP-92 NSCLC, in the assay with CCRF-CEM leukemia, with OVCAR-3 ovarian, in the assay on NCI-H23 lung and in the assay on OVCAR-8 ovarian was above 100 µM each time. For the same compound, the TGI with NCI-H522 lung and in the assay with UO-31 renal was above 100 µM each time.
On to `Cc1cc2c(C)nn(Cc3ccccc3)c2c(C(N)=O)c1C`, for which the TGI in the assay on SF-268 CNS, with HOP-92 NSCLC, in the assay with CCRF-CEM leukemia, in the assay on OVCAR-3 ovarian, in the assay on NCI-H23 lung and in the assay on RPMI-8226 leukemia was above 100 µM throughout. The TGI with OVCAR-8 ovarian, in the assay on NCI-H522 lung and in the assay on UO-31 renal was above 100 µM each time.
